Patent US9029403B2, “Treatment of ovarian cancer with benzylidenebenzohydrazides” (Memorial Sloan-Kettering Cancer Center, priority 2011, dated 2015)

Test system: NSG mice
Assay: In vivo toxicity in NSG mice
Conditions: intraperitoneal, 1, 2.5, 5, 10, 20 or 40 mg/kg, once or three times a week for 4 weeks
Protocol: The compound designated example 10 above was tested in vivo for toxicity in NSG mice. As used herein, NSG and NSG mice mean the NOD scid gamma (NSG) mice, or an equivalent, available from The Jackson Laboratory and which are the NOD.Cg-Prkdc^scid I12rg^tm1Wj1/SzJ JAX® Mice strain. The NSG mice were injected intraperitoneally with 1, 2.5, 5, 10, 20 or 40 mg/kg of the compound designated example 10 above for once or three times a week for 4 weeks.

Question: How did the overt toxicity turn out when `Cc1ccc(C(=O)N/N=C/c2c(O)ccc3ccccc23)cn1` [example 10] was run?
Answer: no overt toxicity
